Laboratory results as given in the NIST ThermoML archive (doi:10.1021/je900725w).
Numbers after ± are expanded uncertainties.

How the values were obtained:
[1] = 308.15 K, 101.33 kPa, Liquid
[2] = relative permittivity at zero frequency (dimensionless); wn = mass fraction of the nth substance listed; settings: 101 kPa, Liquid, Parallel plate capacitor
[3] = wn = mass fraction of the nth substance listed; settings: 101 kPa, Liquid; for viscosity: Capillary tube (Ostwald / Ubbelohde) method; for mass density: Vibrating tube method

CCOCCO [2-ethoxyethan-1-ol]
Settings | mass density [kg/m3]
[1] | 924.97 ± 0.61

Settings | viscosity [mPa·s]
[1], Capillary tube (Ostwald / Ubbelohde) method | 1.828 ± 0.018

CCOCCO [2-ethoxyethan-1-ol] + O
Settings | mass density, w1 = 0.25 [kg/m3] | mass density, w1 = 0.4 [kg/m3] | mass density, w1 = 0.5 [kg/m3] | relative permittivity at zero frequency, w1 = 0.25 | relative permittivity at zero frequency, w1 = 0.4 | relative permittivity at zero frequency, w1 = 0.5 | viscosity, w1 = 0.25 [mPa·s] | viscosity, w1 = 0.4 [mPa·s] | viscosity, w1 = 0.5 [mPa·s]
[2], 308.15 K | – | – | – | 60.13 ± 0.01 | 50.54 ± 0.01 | 44.3 ± 0.01 | – | – | –
[2], 313.15 K | – | – | – | 58.7 ± 0.01 | 49.28 ± 0.01 | 43.03 ± 0.01 | – | – | –
[2], 318.15 K | – | – | – | 57.37 ± 0.01 | 48.14 ± 0.01 | 41.95 ± 0.01 | – | – | –
[2], 323.15 K | – | – | – | 56.11 ± 0.01 | 47.1 ± 0.01 | 40.96 ± 0.01 | – | – | –
[3], 308.15 K | 997.58 ± 0.4 | 997.47 ± 0.41 | 993.61 ± 0.41 | – | – | – | 1.843 ± 0.02 | 1.955 ± 0.018 | 1.923 ± 0.018
[3], 313.15 K | 992.45 ± 0.4 | 991.01 ± 0.41 | 985.14 ± 0.41 | – | – | – | 1.529 ± 0.017 | 1.702 ± 0.018 | 1.72 ± 0.017
[3], 318.15 K | 988.07 ± 0.4 | 986.96 ± 0.4 | 980.04 ± 0.41 | – | – | – | 1.274 ± 0.014 | 1.427 ± 0.015 | 1.455 ± 0.015
[3], 323.15 K | 983.94 ± 0.4 | 983.78 ± 0.4 | 976.1 ± 0.4 | – | – | – | 1.092 ± 0.012 | 1.232 ± 0.013 | 1.276 ± 0.013
